Results published in the supplement of paper PMC12420376.

Legend:
KURAMOCHI = test: drug sensitivity score (DSS2) on cancer cell count; higher = more sensitive; extreme values may be limits of the assay; conditions: 72 h
Outline: (§1)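 Cancer cell counts came from 10× images (4 fields) of fixed cells immunostained for CK8/18 with Hoechst. The ovarian cancer cells had been grown alone or in 1:1 direct co-culture with lung or skin fibroblasts on 384-well plates pre-spotted acoustically with 528 approved and investigational compounds at 5 concentrations, then treated for 72 h. Breeze was used to derive a drug sensitivity score from logistic fits of the data.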

OVCAR8 = test: as above; conditions: 72 h
Outline: as §1

[1] = co-cultured fibroblast: BJHTERT
[2] = co-cultured fibroblast: none (monoculture)

Row | Structure (SMILES) | drug sensitivity score (KURAMOCHI; [1]) [DSS] | drug sensitivity score (KURAMOCHI; co-cultured fibroblast: WI38) [DSS] | drug sensitivity score (KURAMOCHI; [2]) [DSS] | drug sensitivity score (OVCAR8; [1]) [DSS] | drug sensitivity score (OVCAR8; co-cultured fibroblast: WI38) [DSS] | drug sensitivity score (OVCAR8; [2]) [DSS]
1 | C[C@H]1C[C@@H](n2c(Nc3ccc(OC(F)(F)F)cc3)nc3cc(CCC(=O)O)ccc32)CC(C)(C)C1 | 0 | 0 | 0 | 0 | 0 | 0
2 | CC[C@@H](C(=O)[C@@H](C)[C@@H](O)[C@H](C)[C@@H]1O[C@@H]([C@@H](CC)C(=O)O)CC[C@@H]1C)[C@H]1O[C@]2(C=C[C@@H](O)[C@]3(CC[C@@](C)([C@H]4CC[C@](O)(CC)[C@H](C)O4)O3)O2)[C@H](C)C[C@@H]1C [Salinomycin] | 23.1 | 23.6 | 28.5 | 22.1 | 12.2 | 21.1
3 | Cc1ccc(NS(=O)(=O)c2cccc(C#N)c2)c2[nH]cc(C#N)c12 [E7820] | 6.5 | 9.7 | 15.8 | 5.4 | 0 | 12.8
4 | CC1(C)CC[C@]2(NC(=O)C(C)(F)F)CC[C@]3(C)[C@H](C(=O)C=C4[C@@]5(C)C=C(C#N)C(=O)C(C)(C)[C@@H]5CC[C@]43C)[C@@H]2C1 [Omaveloxolone] | 17.2 | 17.8 | 20.1 | 7 | 20 | 21.5
5 | COc1cc(C(=O)O)ccc1NC(=O)[C@@H]1N[C@@H](CC(C)(C)C)[C@](C#N)(c2ccc(Cl)cc2F)[C@H]1c1cccc(Cl)c1F [Idasanutlin] | 0 | 1.1 | 0 | 1.3 | 4.2 | 0
6 | CC(=O)O[C@@]12CO[C@@H]1C[C@H](O)[C@@]1(C)C(=O)[C@H](O)C3=C(C)[C@@H](OC(=O)[C@H](O)[C@@H](NC(=O)OC(C)(C)C)c4ccccc4)C[C@@](O)([C@@H](OC(=O)c4ccccc4)[C@H]21)C3(C)C [Docetaxel] | 27.4 | 26.2 | 21.1 | 31.8 | 31.9 | 28.3
7 | Cn1cc(-c2cnn3c(N)c(Br)c([C@@H]4CCCNC4)nc23)cn1 [MK-8776] | 1.2 | 0 | 1.6 | 7.8 | 0.2 | 0
8 | CN1CCc2c(c3ccccc3n2Cc2ccc(C(=O)NO)cc2)C1 [Tubastatin A] | 0 | 3.3 | 4.6 | 0 | 4.3 | 5.2
9 | COc1cc(Nc2c(C#N)cnc3cc(OCCCN4CCN(C)CC4)c(OC)cc23)c(Cl)cc1Cl [Bosutinib] | 12.9 | 11 | 12.6 | 8.6 | 9.1 | 8.9
10 | COc1cc2c(NC3CCN(C(C)C)CC3)nc(N3CCC(F)(F)CC3)nc2cc1OCCCN1CCCC1 [UNC0642] | 1.5 | 0.7 | 0.1 | 8 | 0 | 2.2
11 | O=C(c1ccc(OCCN2CCCCC2)cc1)c1c(-c2ccc(O)cc2)sc2cc(O)ccc12 [Raloxifene] | 4 | 0 | 0 | 2.5 | 0 | 0
12 | CCNc1nc(Nc2cc(F)c(C(=O)N3CCOCC3)cc2OC)ncc1C(F)(F)F [GNE-7915] | 0 | 0 | 0 | 0 | 0 | 0
13 | COC(=O)N[C@@H](C)CNc1nccc(-c2cn(C(C)C)nc2-c2cc(Cl)cc(NS(C)(=O)=O)c2F)n1 [Encorafenib] | 0 | 0 | 0 | 0 | 0 | 0.1
14 | Cc1c2oc3c(C)ccc(C(=O)N[C@@H]4C(=O)N[C@H](C(C)C)C(=O)N5CCC[C@H]5C(=O)N(C)CC(=O)N(C)[C@@H](C(C)C)C(=O)O[C@@H]4C)c3nc-2c(C(=O)N[C@@H]2C(=O)N[C@H](C(C)C)C(=O)N3CCC[C@H]3C(=O)N(C)CC(=O)N(C)[C@@H](C(C)C)C(=O)O[C@@H]2C)c(N)c1=O [Dactinomycin] | 25.7 | 25.9 | 34 | 31.6 | 32.4 | 31.8
15 | OC[C@H]1O[C@@H](n2cnc3c2N=CNC[C@H]3O)C[C@@H]1O [Pentostatin] | 0 | 0 | 0 | 0 | 2.8 | 0
16 | Cc1ccc(C(=O)Nc2cccc(C(F)(F)F)c2)cc1Nc1nc(-c2cccnc2)nc2c1cnn2C [NVP-BHG712] | 5.8 | 6.7 | 8.9 | 0 | 6.8 | 7.5
17 | O=C(Nc1cccnc1)N1CCC(Cc2cccc(Oc3ccc(C(F)(F)F)cn3)c2)CC1 [PF-3845] | 0.5 | 0 | 0 | 0 | 0 | 1.9
18 | O=C1CCC(N2C(=O)c3ccccc3C2=O)C(=O)N1 (stereo not given) [Thalidomide] | 0 | 0 | 0 | 0 | 0 | 0
19 | CC[C@@H]1[C@H](F)C(=O)N[C@@H]1COc1nccc2cc(C(N)=O)c(OC)cc12 | 3.7 | 1.8 | 1.9 | 2.4 | 10.1 | 4
20 | Cn1cc(C2=C(c3cn(C4CCN(Cc5ccccn5)CC4)c4ccccc34)C(=O)NC2=O)c2ccccc21 [Enzastaurin] | 0 | 0.6 | 0 | 0 | 6.4 | 0
21 | CC(C)n1nc(-c2ccc3oc(N)nc3c2)c2c(N)ncnc21 [Sapanisertib] | 13.5 | 12.4 | 15.1 | 11 | 7.9 | 11.8
22 | COCC[n+]1c2c(n(Cc3cnccn3)c1C)C(=O)c1ccccc1C2=O [Sepantronium bromide] | 40.7 | 30 | 30.5 | 37.1 | 35.5 | 29.9
23 | NC[C@@](O)(c1ccc(Cl)cc1)c1ccc(-c2cn[nH]c2)cc1 | 0 | 4.2 | 3 | 3.3 | 10.7 | 5.1
24 | Nc1ccn([C@@H]2O[C@H](CO)[C@@H](O)C2(F)F)c(=O)n1 [Gemcitabine] | 18.4 | 25.2 | 26.7 | 29.5 | 27.2 | 26.3
25 | CC(C)n1cnc2c(NCCc3ccc(O)cc3)nc(-c3csc4ccccc34)nc21 [StemRegenin 1] | 4.3 | 2.8 | 1.7 | 2.8 | 0 | 1

Row | Structure (SMILES) | drug sensitivity score (KURAMOCHI; [1]) [DSS] | drug sensitivity score (KURAMOCHI; co-cultured fibroblast: WI38) [DSS] | drug sensitivity score (KURAMOCHI; [2]) [DSS] | drug sensitivity score (OVCAR8; [1]) [DSS] | drug sensitivity score (OVCAR8; co-cultured fibroblast: WI38) [DSS] | drug sensitivity score (OVCAR8; [2]) [DSS]
26 | O=c1[nH]cc(F)c(=O)[nH]1 [Fluorouracil] | 2.3 | 5.4 | 5 | 1.3 | 1.4 | 5.5
27 | CC(C)(C)c1cc(NC(=O)Nc2ccc(-c3cn4c(n3)sc3cc(OCCN5CCOCC5)ccc34)cc2)no1 [Quizartinib] | 0 | 0 | 0 | 3.6 | 6.2 | 0
28 | CCc1nc(C(N)=O)c(Nc2ccc(N3CCC(N4CCN(C)CC4)CC3)c(OC)c2)nc1NC1CCOCC1 [Gilteritinib] | 0.4 | 0 | 0 | 1.5 | 0 | 0
29 | CC[C@@H]1C(=O)OC[C@@H]1Cc1cncn1C [Pilocarpine] | 0 | 0 | 0 | 0 | 19.4 | 0
30 | CCOc1ccccc1-n1c(C(C)N2CCN(C(=O)COc3ccc(Cl)cc3)CC2)nc2ccccc2c1=O (stereo not given) [Erastin] | 3.6 | 3.9 | 2.6 | 17.9 | 18.6 | 7.4
31 | N#Cc1ccc2[nH]c(O)c(-c3ccc(CN4CCOCC4)cn3)c2c1 [AZD-1080] | 0 | 0 | 0 | 0.1 | 0 | 0
32 | CON(C)C(=O)N1N=C(c2cc(F)ccc2F)S[C@@]1(CCCN)c1ccccc1 [Filanesib] | 21.4 | 22.4 | 16.2 | 21.9 | 32.9 | 29.3
33 | CC[C@H](C)C(=O)O[C@H]1C[C@@H](C)C=C2C=C[C@H](C)[C@H](CC[C@@H]3C[C@@H](O)CC(=O)O3)[C@H]21 [Lovastatin] | 0.3 | 3.4 | 5.4 | 1.7 | 8.4 | 2.1
34 | C[C@@H]1CN(C(=O)c2ccc(NC(=O)c3cc(O[C@H](C)c4c(Cl)ccc(F)c4Cl)c(N)nn3)cc2)C[C@H](C)N1 [Ensartinib] | 1 | 1 | 0 | 0 | 0.1 | 0
35 | O=C1Cc2cc(C(=O)NC3C[C@H]4CC[C@@H](C3)N4S(=O)(=O)CC3CCN(CCCC(F)(F)F)CC3)c(Cl)cc2N1 (stereo not given in full) | 0 | 0.1 | 0 | 0 | 0 | 0
36 | CN1CCN(CCOc2cc(OC3CCOCC3)c3c(Nc4c(Cl)ccc5c4OCO5)ncnc3c2)CC1 [Saracatinib] | 10.4 | 9.6 | 9.9 | 9.2 | 13.3 | 14.6
37 | Cn1cncc1[C@@](N)(c1ccc(Cl)cc1)c1ccc2c(c1)c(-c1cccc(Cl)c1)cc(=O)n2C [Tipifarnib] | 14.9 | 18.3 | 12.9 | 5.5 | 2.5 | 12.5
38 | CNS(=O)(=O)Nc1nccc(Cc2c(C)c3ccc(Oc4ncccn4)cc3oc2=O)c1F | 0 | 0 | 4.3 | 0 | 5.7 | 0.2
39 | CC1(C)CCC(c2ccc(Cl)cc2)=C(CN2CCN(c3ccc(C(=O)NS(=O)(=O)c4ccc(N[C@H](CCN5CCOCC5)CSc5ccccc5)c(S(=O)(=O)C(F)(F)F)c4)cc3)CC2)C1 [Navitoclax] | 2.4 | 3.1 | 1.1 | 7.5 | 0 | 0.3
40 | S=C(NCc1ccc2c(c1)OCO2)N1CCN(c2ncnc3c2oc2ccccc23)CC1 [Amuvatinib] | 2.5 | 0.5 | 0 | 8.6 | 0 | 2.2
41 | C=CC(=O)N1CCC(Oc2cc3c(Nc4ccc(Cl)c(Cl)c4F)ncnc3cc2OC)CC1 [Poziotinib] | 4.4 | 7.9 | 3 | 4 | 0.2 | 0.3
42 | CC(C)C(=O)Nc1ccc([N+](=O)[O-])c(C(F)(F)F)c1 [Flutamide] | 0 | 1.3 | 0 | 0 | 0 | 0
43 | O=C(CCCCCCNC(=O)c1cnc(N(c2ccccc2)c2ccccc2)nc1)NO [Rocilinostat] | 6.7 | 6.9 | 7.1 | 10.4 | 5.2 | 18.6
44 | CNC(=O)c1ccccc1Nc1nc(Nc2ccc3c(c2OC)CCC[C@H](N2CCN(CCO)CC2)C3)ncc1Cl | 6.7 | 2.2 | 9.5 | 7.3 | 2.2 | 11.1
45 | O=C(NOCCO)c1ccc2cncn2c1Nc1ccc(I)cc1F [GDC-0623] | 0 | 0 | 18.9 | 7.5 | 0 | 19.2
46 | CN(CC(=O)N(Cc1ccc(C2CCCCC2)cc1)c1ccc(C(=O)O)cc1)S(=O)(=O)c1c(F)c(F)c(F)c(F)c1F [SH-4-54] | 8.5 | 7.8 | 12 | 0 | 6 | 7.3
47 | CC(C)C[C@H](NC(=O)CNC(=O)c1cc(Cl)ccc1Cl)B(O)O [Ixazomib] | 1 | 11.6 | 7.6 | 1.8 | 8.7 | 11.3
48 | CC(C)(C)C[C@@H]1N[C@@H](C(=O)N[C@H]2CC[C@H](O)CC2)[C@H](c2cccc(Cl)c2F)[C@]12C(=O)Nc1cc(Cl)ccc12 | 0 | 0.1 | 0 | 2.5 | 0 | 0
49 | Cn1cc(-c2ccc(F)c(C(F)(F)F)c2)nc1C1CCN(c2ncnc3[nH]ncc23)CC1 | 1 | 0 | 0 | 0 | 0 | 0.6
50 | O=C(c1cccc(Cl)c1F)N1CCN(Cc2cccc(Nc3nccs3)n2)CC1 [MK-8745] | 11.8 | 14.3 | 13.4 | 12.5 | 14.3 | 13.9
